Test results as given in patent publication US5447912A, “Erection-inducing methods and compositions” (priority 1993, dated 1995).
“Also recorded” adds a separate entry of the source. Where no end group is shown, it is not given here.

Assays:
[1] = tested on: males suffering from impotence of which severe atherosclerosis is a cause; conditions: background statement; cited from earlier work
human males [2] = conditions: cited from earlier work; for priapism (background): treatment of impotence
[3] = tested on: male suffering from impotence, which is substantially only neurogenic or psychogenic; conditions: cited from earlier work; for erection after intracavernosal injection where severe atherosclerosis is not involved (background): injection into a corpus cavernosum
human males [4] = assay: Side effects of intracavernosal injection to induce an erection; type: in vivo
[5] = tested on: males suffering from impotence of which severe atherosclerosis is a cause; assay: Intracavernosal injection coupled with sexual stimulation in males with impotence of which severe atherosclerosis is a cause; type: in vivo, human
Protocol: To minimize side-effects when VIP is employed in such a composition, it is preferred that less than about 60 μg of VIP be administered.
Thus, between about 0. […] If necessary, the time between injection and sexual stimulation may be longer, up to several hours.

[6] = tested on: male suffering from impotence, which is substantially only neurogenic or psychogenic; assay: Intracavernosal injection coupled with sexual stimulation in males with impotence that is substantially only neurogenic or psychogenic; type: in vivo, human; conditions: for time to erection sufficient for vaginal penetration: 1 ml of 30 μg/ml in phosphate buffered saline, after tourniquet release (5-10 minutes after injection) and sexual stimulation; for dose with which virtually all males achieve an erection sufficient for vaginal penetration: intracavernosal injection in physiologically acceptable diluent; for dose with which virtually all males achieve an erection sufficient for vaginal penetration / dose as low as which many males achieve an erection sufficient for vaginal penetration: coupled with sexual stimulation; for dose as low as which many males achieve an erection sufficient for vaginal penetration: intracavernosal injection
Protocol: A preferred composition to effect an erection in male suffering from impotence, which is substantially only neurogenic or psychogenic, in accord with the methods herein, is a solution of PHM or VIP at 30 μg/ml in phosphate buffered saline at pH between about 2 and about 4.5, preferably between about 2 and about 3.5 and most preferably about 3, with the PHM or VIP the only substance in the solution that is pharmacologically active in inducing an erection. Preferably 1 ml of the preferred composition is administered as a bolus by injection into a corpus cavernosum while the penis is constricted at its base with a tourniquet. About 5-10 minutes after the injection, the tourniquet is released and, if not already started before the tourniquet is released, sexual stimulation is begun. […] The composition, however, the time between administration and sexual stimulation may be longer, if necessary.

[7] = tested on: normal male (males not suffering from erectile insufficiency); conditions: cited from earlier work

| Molecule | induction of erection in impotence due to severe atherosclerosis (background) [1] | priapism (background) (human males [2]) | erection after intracavernosal injection where severe atherosclerosis is not involved (background) [3] | induction of erection in impotence caused by severe atherosclerosis [5] | time to erection sufficient for vaginal penetration [6] | dose with which virtually all males achieve an erection sufficient for vaginal penetration [6] | dose as low as which many males achieve an erection sufficient for vaginal penetration [6] | further results |
| --- | --- | --- | --- | --- | --- | --- | --- | --- |
| COc1ccc(Cc2nccc3cc(OC)c(OC)cc23)cc1OC [papaverine] | ineffective; also recorded: not susceptible to treatment | often results in priapism | cause an erection sufficient for vaginal penetration |  |  |  |  | pain on injection (background) (human males [2]; intracavernosal use): painful, burning sensation in the first two or so minutes after the injection; fibrosis on repeated use (background) (human males [2]; repeated use): undesirable, extensive intracavernous fibrosis |
| human vasoactive intestinal peptide [VIP] | does not induce erections |  |  | not effective in inducing erections | ≤ 5 min | 30 µg | 10 µg | side-effects observed at higher doses (human males [4]; in vivo): hypotension, increased pulse rate, flushing of the face and trunk; erectile response coupled with visual and/or vibratory sexual stimulation ([7]; as little as 1 μm (at 1 μm/ml of diluent) injected into a corpus cavernosum): facilitates full erection; erectile response without sexual stimulation ([7]; injection of up to 20 μm of VIP (at 20 μm/ml of diluent) into a corpus cavernosum, no sexual stimulation): only slight swelling (slight tumescence) of the penis but not an erection |
| peptide N-terminal histidine C-terminal methionineamide (HADGVFTSDFSKLLGQLSAKKYLESLM-NH2; UniProt P01282 81-107, looked up) [PHM] |  |  |  | not effective in inducing erections | ≤ 5 min | 30 µg | 10 µg | priapism (human males [4]; induction of an erection with VIP or PHM by intracavernosal injection): does not entail priapism; also recorded: Priapism does not occur; duration of pharmacological effect compared with VIP ([6]; at the same dosage): somewhat longer lasting pharmacological effect than VIP |
| CC(COc1ccccc1)N(CCCl)Cc1ccccc1 (centres unmarked) [phenoxybenzamine] | not susceptible to treatment | often results in priapism | cause an erection sufficient for vaginal penetration |  |  |  |  | carcinogenicity (background) (human males [2]; in vivo): is a carcinogen |
| Cc1ccc(N(CC2=NCCN2)c2cccc(O)c2)cc1 [phentolamine] | not susceptible to treatment |  | causes an erection sufficient for vaginal penetration |  |  |  |  | duration of resulting erection (background) ([3]; intracavernosal injection, severe atherosclerosis not a cause): significantly shorter duration than that induced by intracavernosal injection of papaverine or phenoxybenzamine |
